# Key:
# Calcitonin receptor = biological target: T1, Calcitonin receptor (Homo sapiens, UniProt P30988); type: cell membranes, Membrane; conditions: t47d; note: in other assays of this panel Not Active means under 50% inhibition at 10 µM
# T1 sequence (P30988 whole entry): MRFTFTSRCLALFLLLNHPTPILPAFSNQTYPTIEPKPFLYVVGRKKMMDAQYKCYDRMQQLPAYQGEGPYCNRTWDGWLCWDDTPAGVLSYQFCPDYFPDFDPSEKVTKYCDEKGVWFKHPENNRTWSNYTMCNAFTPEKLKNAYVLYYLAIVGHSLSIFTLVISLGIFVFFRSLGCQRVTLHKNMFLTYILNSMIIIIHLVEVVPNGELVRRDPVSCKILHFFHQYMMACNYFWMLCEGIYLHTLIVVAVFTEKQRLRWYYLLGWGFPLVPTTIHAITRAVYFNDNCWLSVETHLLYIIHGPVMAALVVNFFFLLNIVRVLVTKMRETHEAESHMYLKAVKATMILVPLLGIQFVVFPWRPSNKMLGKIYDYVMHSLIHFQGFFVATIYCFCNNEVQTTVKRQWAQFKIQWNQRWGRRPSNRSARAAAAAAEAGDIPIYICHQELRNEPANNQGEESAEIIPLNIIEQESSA
# [1] = DRUGMATRIX: Calcium Channel Type L, Phenylalkylamine radioligand binding (ligand: [3H] (-)-Desmethoxyverapamil (D-888)); type: cell membranes, Rattus norvegicus, Wistar, Brain, Membrane; conditions: Not Active = under 50% inhibition at 10 µM
# Nitric oxide synthase 1 = Nitric oxide synthase 1 (Rattus norvegicus, UniProt P29476); type: tissue-based, Cerebellum; note: in other assays of this panel Not Active means under 50% inhibition at 10 µM
# Adenosine receptor A3 = biological target: T2, Adenosine receptor A3 (Homo sapiens, UniProt P0DMS8); type: cell membranes, CHO-K1, Membrane;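 note: radioligand binding assay with AB-MECA serving as the labeled ligand; in other assays of this panel Not Active means under 50% inhibition at 10 µM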
# T2 sequence (P0DMS8 whole entry): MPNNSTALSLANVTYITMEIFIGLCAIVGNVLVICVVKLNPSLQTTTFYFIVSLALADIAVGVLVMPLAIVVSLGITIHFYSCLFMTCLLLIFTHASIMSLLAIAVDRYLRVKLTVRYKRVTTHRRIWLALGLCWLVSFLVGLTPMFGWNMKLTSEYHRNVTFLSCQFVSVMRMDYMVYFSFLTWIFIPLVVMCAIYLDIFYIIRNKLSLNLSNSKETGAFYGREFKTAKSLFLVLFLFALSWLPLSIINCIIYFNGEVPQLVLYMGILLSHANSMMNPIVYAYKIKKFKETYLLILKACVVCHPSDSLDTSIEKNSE
# Cytochrome P450 2C19 = Cytochrome P450 2C19 (Homo sapiens, UniProt P33261); note: in other assays of this panel Not Active means under 50% inhibition at 10 µM
# Androgen receptor = biological target: T3, Androgen receptor (Rattus norvegicus, UniProt P15207); note: in other assays of this panel Not Active means under 50% inhibition at 10 µM
# T3 sequence (P15207 whole entry): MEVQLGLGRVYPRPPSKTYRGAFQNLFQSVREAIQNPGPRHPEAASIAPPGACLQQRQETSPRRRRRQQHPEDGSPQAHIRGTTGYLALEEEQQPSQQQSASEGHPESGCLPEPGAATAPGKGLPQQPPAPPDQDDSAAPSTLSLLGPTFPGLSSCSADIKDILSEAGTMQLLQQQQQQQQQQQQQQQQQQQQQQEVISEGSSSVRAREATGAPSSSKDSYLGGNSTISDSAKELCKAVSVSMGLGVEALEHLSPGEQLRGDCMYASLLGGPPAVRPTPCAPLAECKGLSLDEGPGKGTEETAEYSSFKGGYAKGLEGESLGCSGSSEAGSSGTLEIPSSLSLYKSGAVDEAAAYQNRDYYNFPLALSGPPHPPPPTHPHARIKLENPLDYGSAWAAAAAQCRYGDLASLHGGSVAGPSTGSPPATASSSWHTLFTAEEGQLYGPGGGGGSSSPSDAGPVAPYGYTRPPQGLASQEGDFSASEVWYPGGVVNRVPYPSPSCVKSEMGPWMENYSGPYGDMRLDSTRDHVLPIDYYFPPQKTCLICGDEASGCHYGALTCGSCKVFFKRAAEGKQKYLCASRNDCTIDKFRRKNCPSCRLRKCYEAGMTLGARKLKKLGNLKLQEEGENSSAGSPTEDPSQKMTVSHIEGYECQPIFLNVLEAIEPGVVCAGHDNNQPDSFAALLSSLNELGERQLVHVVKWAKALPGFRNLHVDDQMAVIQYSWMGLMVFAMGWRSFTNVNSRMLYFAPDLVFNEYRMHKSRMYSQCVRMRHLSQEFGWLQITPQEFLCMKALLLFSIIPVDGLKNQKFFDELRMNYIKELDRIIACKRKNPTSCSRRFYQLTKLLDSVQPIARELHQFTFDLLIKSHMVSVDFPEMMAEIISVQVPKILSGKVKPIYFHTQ
# Glucocorticoid receptor = biological target: T4, Glucocorticoid receptor (Homo sapiens, UniProt P04150); assay: biochemical; note: in other assays of this panel Not Active means under 50% inhibition at 10 µM
# T4 sequence (P04150 whole entry): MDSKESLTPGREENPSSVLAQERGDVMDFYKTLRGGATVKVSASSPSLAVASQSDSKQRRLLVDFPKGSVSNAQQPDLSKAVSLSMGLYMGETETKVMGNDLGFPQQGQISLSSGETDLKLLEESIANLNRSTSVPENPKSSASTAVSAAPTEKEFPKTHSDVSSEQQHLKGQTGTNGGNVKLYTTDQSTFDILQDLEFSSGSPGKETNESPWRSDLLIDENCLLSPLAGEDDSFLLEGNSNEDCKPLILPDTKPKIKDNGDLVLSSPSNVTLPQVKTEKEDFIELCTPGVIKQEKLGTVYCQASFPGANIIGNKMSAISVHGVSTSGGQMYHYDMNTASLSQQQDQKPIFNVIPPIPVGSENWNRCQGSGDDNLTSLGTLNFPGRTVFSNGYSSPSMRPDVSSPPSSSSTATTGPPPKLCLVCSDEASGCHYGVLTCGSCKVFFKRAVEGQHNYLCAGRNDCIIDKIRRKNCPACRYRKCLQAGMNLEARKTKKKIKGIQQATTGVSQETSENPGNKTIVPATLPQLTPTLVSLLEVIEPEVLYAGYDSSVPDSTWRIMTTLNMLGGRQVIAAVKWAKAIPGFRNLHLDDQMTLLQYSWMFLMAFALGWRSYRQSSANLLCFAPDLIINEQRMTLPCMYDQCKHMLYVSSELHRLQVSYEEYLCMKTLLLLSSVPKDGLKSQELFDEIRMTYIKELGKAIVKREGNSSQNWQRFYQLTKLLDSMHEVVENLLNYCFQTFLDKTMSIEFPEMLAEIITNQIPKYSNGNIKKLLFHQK
# Sequence of Nitric oxide synthase 1 (P29476 whole entry): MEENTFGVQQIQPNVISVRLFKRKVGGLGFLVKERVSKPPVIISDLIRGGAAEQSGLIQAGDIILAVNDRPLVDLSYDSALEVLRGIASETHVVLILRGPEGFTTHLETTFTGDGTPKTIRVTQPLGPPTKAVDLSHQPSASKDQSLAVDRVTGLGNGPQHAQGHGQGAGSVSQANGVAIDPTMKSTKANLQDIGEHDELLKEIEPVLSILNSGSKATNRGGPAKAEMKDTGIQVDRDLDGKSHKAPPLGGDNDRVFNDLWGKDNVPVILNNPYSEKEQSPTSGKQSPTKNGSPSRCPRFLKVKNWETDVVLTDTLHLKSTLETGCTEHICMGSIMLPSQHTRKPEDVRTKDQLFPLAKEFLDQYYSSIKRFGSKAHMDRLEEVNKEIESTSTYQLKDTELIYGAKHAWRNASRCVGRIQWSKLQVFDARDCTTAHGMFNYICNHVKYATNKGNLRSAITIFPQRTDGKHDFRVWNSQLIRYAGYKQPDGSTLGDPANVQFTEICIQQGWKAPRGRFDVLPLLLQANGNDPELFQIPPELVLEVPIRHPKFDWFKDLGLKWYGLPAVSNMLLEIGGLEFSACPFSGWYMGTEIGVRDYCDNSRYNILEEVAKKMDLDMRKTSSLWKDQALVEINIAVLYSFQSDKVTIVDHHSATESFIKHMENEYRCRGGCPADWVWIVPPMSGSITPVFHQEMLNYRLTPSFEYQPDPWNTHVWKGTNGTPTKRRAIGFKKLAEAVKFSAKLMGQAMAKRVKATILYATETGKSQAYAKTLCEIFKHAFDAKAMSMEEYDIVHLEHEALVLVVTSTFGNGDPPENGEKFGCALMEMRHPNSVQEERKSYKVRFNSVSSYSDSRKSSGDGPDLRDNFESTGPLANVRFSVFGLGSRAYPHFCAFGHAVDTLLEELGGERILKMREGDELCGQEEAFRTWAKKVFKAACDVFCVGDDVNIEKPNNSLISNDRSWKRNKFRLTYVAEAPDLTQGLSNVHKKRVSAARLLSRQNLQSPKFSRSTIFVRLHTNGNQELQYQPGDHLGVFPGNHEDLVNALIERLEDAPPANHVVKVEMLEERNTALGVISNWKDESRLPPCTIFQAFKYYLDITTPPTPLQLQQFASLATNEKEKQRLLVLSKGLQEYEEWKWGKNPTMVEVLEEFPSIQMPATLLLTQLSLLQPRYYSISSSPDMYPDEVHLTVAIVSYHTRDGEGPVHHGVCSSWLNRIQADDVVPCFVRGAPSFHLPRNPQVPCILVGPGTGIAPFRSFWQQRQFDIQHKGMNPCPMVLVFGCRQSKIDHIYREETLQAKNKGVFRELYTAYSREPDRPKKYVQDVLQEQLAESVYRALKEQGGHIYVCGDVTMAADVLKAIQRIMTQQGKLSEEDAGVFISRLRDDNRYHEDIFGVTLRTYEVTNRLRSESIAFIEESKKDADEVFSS
# Sequence of Cytochrome P450 2C19 (P33261 whole entry): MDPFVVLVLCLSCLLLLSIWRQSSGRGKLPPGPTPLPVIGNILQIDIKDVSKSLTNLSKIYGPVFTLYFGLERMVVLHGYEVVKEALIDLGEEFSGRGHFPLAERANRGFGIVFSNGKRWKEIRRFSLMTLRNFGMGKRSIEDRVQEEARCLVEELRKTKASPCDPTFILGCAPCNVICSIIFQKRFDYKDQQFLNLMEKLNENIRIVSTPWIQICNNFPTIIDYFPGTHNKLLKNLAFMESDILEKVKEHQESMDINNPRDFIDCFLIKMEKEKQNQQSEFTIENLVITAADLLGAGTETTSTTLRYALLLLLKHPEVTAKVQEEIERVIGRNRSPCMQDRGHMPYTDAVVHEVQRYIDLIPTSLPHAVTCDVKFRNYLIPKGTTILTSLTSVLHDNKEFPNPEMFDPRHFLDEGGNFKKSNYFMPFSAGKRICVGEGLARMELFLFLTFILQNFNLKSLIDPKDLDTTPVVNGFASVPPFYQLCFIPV
Molecule,IC50 (Calcitonin receptor),IC50 [1],Ki [1],IC50 (Nitric oxide synthase 1),IC50 (Adenosine receptor A3; cho-k1),IC50 (Cytochrome P450 2C19),IC50 (Androgen receptor),IC50 ([1]; read-out: IC50),Ki ([1]; read-out: Ki),IC50 (Adenosine receptor A3; read-out: IC50),Ki (Adenosine receptor A3; read-out: Ki),IC50 (Glucocorticoid receptor),Ki (Glucocorticoid receptor),Ki (Calcitonin receptor),Ki (Nitric oxide synthase 1),Ki (Adenosine receptor A3; cho-k1),Ki (Androgen receptor)
CC[C@]1(O)CC[C@H]2[C@@H]3CCC4=CCCC[C@@H]4[C@H]3CC[C@@]21C,Not Active,Not Active,Not Active,Not Active,Not Active,1.29 µM,,,,,,,,,,,
O=C(c1ccccc1Cl)N1CCC(Cc2ccccc2)CC1,Not Active,Not Active,Not Active,Not Active,Not Active,0.2 µM,Not Active,,,,,,,,,,
C#C[C@]1(O)CC[C@H]2[C@@H]3CCC4=Cc5oncc5C[C@]4(C)[C@H]3CC[C@@]21C [DANAZOL],Not Active,,,Not Active,,,,14.6 µM,14.2 µM,11.2 µM,6.31 µM,4.31 µM,1.96 µM,,,,
C#C[C@]1(O)CC[C@H]2[C@@H]3CCc4cc(O)ccc4[C@H]3CC[C@@]21C [ETHINYL ESTRADIOL],Not Active,,,Not Active,,,,6.99 µM,6.79 µM,32.9 µM,18.6 µM,1.71 µM,0.777 µM,,,,
CC(=O)O[C@]1(C(C)=O)CC[C@H]2[C@@H]3C=C(C)C4=CC(=O)CC[C@]4(C)[C@H]3CC[C@@]21C [MEGESTROL ACETATE],Not Active,Not Active,Not Active,Not Active,Not Active,,,,,,,0.019 µM,0.00877 µM,,,,
CNC(=C[N+](=O)[O-])NCCSCc1csc(CN(C)C)n1 [NIZATIDINE],Not Active,Not Active,Not Active,Not Active,Not Active,,Not Active,,,,,,,,,,
COc1ccc(Cc2nccc3cc(OC)c(OC)cc23)cc1OC [PAPAVERINE],Not Active,Not Active,Not Active,Not Active,Not Active,0.762 µM,Not Active,,,,,,,,,,
Cc1cccc(Nc2cc(Cl)nc(SCC(=O)O)n2)c1C [PIRINIXIC ACID],Not Active,Not Active,Not Active,Not Active,Not Active,,Not Active,,,,,,,,,,
COBALT(II) ACETYLACETONATE,Not Active,Not Active,Not Active,Not Active,Not Active,,Not Active,,,,,,,Not Active,Not Active,Not Active,Not Active
INSULIN HUMAN,Not Active,Not Active,Not Active,Not Active,Not Active,,Not Active,,,,,,,Not Active,Not Active,Not Active,Not Active
POLYVINYL ALCOHOL,Not Active,Not Active,Not Active,Not Active,Not Active,,Not Active,,,,,,,Not Active,Not Active,Not Active,Not Active

# Reference: ChEMBL document CHEMBL1909046, “DrugMatrix in vitro pharmacology data”
